From PubChem BioAssay (NCI)
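All cell lines were grown in 96-well plates and treated with compound for 48 hours. GI50 = concentration required for 50% inhibition of growth. The concentration for full growth arrest is given as TGI.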

Assays:
Test in all cases: NCI anticancer screen, dose series, 48 h
[1] = test system: T-47D breast
[2] = test system: SR leukemia
[3] = test system: CCRF-CEM leukemia
[4] = test system: SNB-19 CNS
[5] = test system: NCI-H522 lung
[6] = test system: NCI/ADR-RES ovarian
[7] = test system: COLO 205 colon
[8] = test system: SW-620 colon
[9] = test system: ACHN renal
[10] = test system: MOLT-4 leukemia
[11] = test system: U251 CNS
[12] = test system: NCI-H460 lung
[13] = test system: NCI-H226 lung
[14] = test system: MDA-MB-435
[15] = test system: UO-31 renal
[16] = test system: 786-0 renal
[17] = test system: SK-OV-3 ovarian
[18] = test system: BT-549 breast
[19] = test system: HCT-116 colon
[20] = test system: UACC-257 melanoma
[21] = test system: RPMI-8226 leukemia
[22] = test system: OVCAR-5 ovarian
[23] = test system: KM12 colon
[24] = test system: SNB-75 CNS
[25] = test system: PC-3 prostate
[26] = test system: DU-145 prostate
[27] = test system: SF-295 CNS
[28] = test system: HCC-2998 colon
[29] = test system: NCI-H23 lung

## O=c1c(I)c[nH]cc1I
[1]
  GI50: > 100 µM
  TGI: > 100 µM
[2]
  GI50: > 100 µM
  TGI: > 100 µM
[3]
  GI50: > 100 µM
  TGI: > 100 µM
[4]
  GI50: > 100 µM
  TGI: > 100 µM
[5]
  GI50: > 100 µM
  TGI: > 100 µM
[6]
  GI50: > 100 µM
  TGI: > 100 µM
[7]
  GI50: > 100 µM
  TGI: > 100 µM
[8]
  GI50: > 100 µM
  TGI: > 100 µM
[9]
  GI50: > 100 µM
  TGI: > 100 µM
[10]
  GI50: > 100 µM
  TGI: > 100 µM
[11]
  GI50: > 100 µM
  TGI: > 100 µM
[12]
  GI50: > 100 µM
  TGI: > 100 µM
[13]
  GI50: > 100 µM
  TGI: > 100 µM
[14]
  GI50: > 100 µM
  TGI: > 100 µM
[15]
  GI50: > 100 µM
  TGI: > 100 µM
[16]
  GI50: > 100 µM
  TGI: > 100 µM
[17]
  GI50: > 100 µM
  TGI: > 100 µM
[18]
  GI50: > 100 µM
  TGI: > 100 µM
[19]
  GI50: > 100 µM
  TGI: > 100 µM
[20]
  GI50: > 100 µM
  TGI: > 100 µM
[21]
  GI50: > 100 µM
  TGI: > 100 µM
[22]
  GI50: > 100 µM
  TGI: > 100 µM
[23]
  GI50: > 100 µM
  TGI: > 100 µM
[24]
  GI50: > 100 µM
  TGI: > 100 µM
[25]
  GI50: > 100 µM
  TGI: > 100 µM
[26]
  GI50: > 100 µM
  TGI: > 100 µM
[27]
  GI50: > 100 µM
  TGI: > 100 µM
[28]
  GI50: > 100 µM
  TGI: > 100 µM
[29]
  GI50: > 100 µM
  TGI: > 100 µM
